The values below come from patent US12091399B2, “Phenyltetrazole derivatives as plasma kallikrein inhibitors” (Boehringer Ingelheim International GmbH, priority 2018, dated 2024).

What all share (assay type): biochemical
The target in one assay is human TK1 (Homo sapiens (Human), UniProt P06870). The assay can be described thus: Inhibition of TK1 (Ki). Conditions: substrate KM, enzyme TK1. The procedure:
(§1) The ability of compounds of formula (I) to inhibit plasma kallikrein (PKK), Factor XIIa (FXIIa), Factor XIa (FXIa), Factor Xa (FXa), Factor IIa (alpha-thrombin; FIIa), plasmin, trypsin, tissue kallikrein 1 (TK1), Factor Vila (FVIIa), or FVIIa complexed with Tissue Factor, phospholipids and CaCl2) (FVIIa/TF/PL/CaCl2) was determined using the following biochemical assays in assay buffer (100 mM Tris, 150 mM NaCL, adjusted to a pH of 7.8 with HCl, and containing 0.1% (w/v) BSA and 0.05% (v/v) Tween20) in the presence of 1% (v/v) DMSO:
Prior to the assay, human TK1 (R&D Systems) was activated by incubation with human trypsin (Calbiochem) in a 1:10,000 ratio for 15 min at 37° C. For assaying TK1 inhibitory activity, activated TK1 (31.25 nM or 1 U/mL) was incubated at 24° C. with 0.1 mM fluorogenic substrate H-Pro-Phe-Arg-AMC (11295 from Bachem) and various concentrations of the test compound in assay buffer. Measurements were performed in a kinetic interval every 2nd minute for 16 min using a Spectramax M5 (Molecular Devices) with the following settings of the wavelength excitation of 350 nm and wavelength emission of 450 nm.
(§2) The pIC50 values were then fitted using a four-parametric fitting procedure using GraphPad Prism (version 6; GraphPad Software, Inc.). […]

For the next assay, the target named is Human FIIa (Homo sapiens (Human), UniProt P00734). Nature of the assay: Inhibition of FIIa (Ki). Particulars: substrate KM, enzyme FIIa. How it is done: as §1
Human FIIa (44.6 nM or 5 U/mL; Enzyme Research Laboratories) was incubated at 24° C. with 0.5 mM chromogenic Substrate S2238 (Chromogenix) and various concentrations of the test compound in assay buffer. Measurements were performed in a kinetic interval every 2nd minute for 16 min using a Spectramax M5 (Molecular Devices) measuring the optical absorbance at 405 nm.
(§3) The pIC50 values were then fitted using a four-parametric fitting procedure using GraphPad Prism (version 6; GraphPad Software, Inc.). Respective Ki values were obtained by correction of the IC50 values for the respective KM value of the used substrate (see Table A for the obtained KM values of the used substrates) using the following formula: […]

The target of a further assay is Human FXIIa (Homo sapiens (Human), UniProt P00748). Nature of the assay: Inhibition of FXIIa (Ki). Conditions: substrate KM, enzyme FXIIa. How it is done: as §1
Human FXIIa (47.5 nM or 1.1 U/mL; Enzyme Research Laboratories) was incubated at 24° C. with 0.5 mM chromogenic Substrate S2302 (Chromogenix) and various concentrations of the test compound in assay buffer. Measurements were performed in a kinetic interval every 2nd minute for 16 min using a Spectramax M5 (Molecular Devices) measuring the optical absorbance at 405 nm.
as §3

The target of another assay is Human FXa (Homo sapiens (Human), UniProt P00742). Nature of the assay: Inhibition of FXa (Ki). Particulars: substrate KM, enzyme FXa. How it is done: as §1
Human FXa (0.86 nM or 0.01 U/mL; Enzyme Research Laboratories) was incubated at 24° C. with 0.5 mM chromogenic Substrate S2765 (Chromogenix) and various concentrations of the test compound in assay buffer. Measurements were performed in a kinetic interval every 2nd minute for 16 min using a Spectramax M5 (Molecular Devices) measuring the optical absorbance at 405 nm.
as §3

For another assay, the target named is FVIIa/TF/PL/CaCl2 (Homo sapiens (Human), UniProt P08709). Nature of the assay: Inhibition of FVIIa/TF/PL/CaCl2 (Ki). Particulars: substrate KM, enzyme FVIIa/TF/PL/CaCl2. The procedure: as §1
Human FVIIa (300 nM or 585 U/mL; Enzyme Research Laboratories) together with 10 mM CaCl2)*2H2O and 13.3% (v/v) Dade®Innovin® (Siemens; OQUMI94E0002(5534), which contains recombinant human tissue factor synthetic phospholipids (thromboplastin), was incubated at 24° C. with 1.5 mM chromogenic Pefachrome® FVIIa (Loxo) and various concentrations of the test compound in assay buffer. Measurements were performed in a kinetic interval every 2nd minute for 16 min using a Spectramax M5 (Molecular Devices) measuring the optical absorbance at 405 nm.
as §2

In the next assay the target is Human FVIIa (Homo sapiens (Human), UniProt P08709). Nature of the assay: Inhibition of FVIIa (Ki). Conditions: substrate KM, enzyme FVIIa. The procedure:
as §1
Human FVIIa (0.86 nM or 0.01 U/mL; Enzyme Research Laboratories) was incubated at 24° C. with 1.5 mM chromogenic Pefachrome® FVIIa (Loxo) and various concentrations of the test compound in assay buffer. Measurements were performed in a kinetic interval every 2nd minute for 16 min using a Spectramax M5 (Molecular Devices) measuring the optical absorbance at 405 nm.
as §3

Square brackets hold non-standard residues; d marks the D form. Peptide text beside a SMILES is read from it. * marks the point of attachment. pNA = O=[N+]([O-])c1ccc(N*)cc1; AMC = Cc1cc(=O)oc2cc(N*)ccc12; Cha = N[CH](CC1CCCCC1)C(=O)O; Cbz = O=C(OCc1ccccc1)*; Abu = CC[CH](N)C(=O)O; Ms = CS(=O)(=O)*

Chain of Human FXIIa (P00748 373-615): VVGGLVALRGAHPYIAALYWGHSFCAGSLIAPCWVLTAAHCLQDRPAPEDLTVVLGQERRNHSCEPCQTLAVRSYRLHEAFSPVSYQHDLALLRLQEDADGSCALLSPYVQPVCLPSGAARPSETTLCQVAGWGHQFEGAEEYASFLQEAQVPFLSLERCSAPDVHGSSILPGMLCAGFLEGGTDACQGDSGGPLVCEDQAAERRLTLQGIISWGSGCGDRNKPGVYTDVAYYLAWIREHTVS
Chain of Human FXIIa (P00748 20-372 partner): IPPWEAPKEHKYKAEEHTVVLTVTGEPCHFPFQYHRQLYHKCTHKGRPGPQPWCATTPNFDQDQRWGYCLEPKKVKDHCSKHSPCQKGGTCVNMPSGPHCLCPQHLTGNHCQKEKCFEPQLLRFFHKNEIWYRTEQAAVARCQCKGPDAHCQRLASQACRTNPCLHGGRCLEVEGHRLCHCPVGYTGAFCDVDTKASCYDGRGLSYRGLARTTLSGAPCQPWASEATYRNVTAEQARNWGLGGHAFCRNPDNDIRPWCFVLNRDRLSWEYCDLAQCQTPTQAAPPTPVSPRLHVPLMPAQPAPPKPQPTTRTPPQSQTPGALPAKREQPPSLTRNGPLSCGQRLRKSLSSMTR
Chain of Human FXa (P00742 235-488): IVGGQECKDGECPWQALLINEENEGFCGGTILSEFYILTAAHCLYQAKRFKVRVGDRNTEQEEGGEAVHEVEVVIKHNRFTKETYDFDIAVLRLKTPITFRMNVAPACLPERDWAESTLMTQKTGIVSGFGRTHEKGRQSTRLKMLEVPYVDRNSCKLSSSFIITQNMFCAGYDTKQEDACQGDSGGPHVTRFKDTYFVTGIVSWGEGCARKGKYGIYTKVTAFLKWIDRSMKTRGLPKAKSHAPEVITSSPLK
Chain of Human FXa (P00742 41-179 partner): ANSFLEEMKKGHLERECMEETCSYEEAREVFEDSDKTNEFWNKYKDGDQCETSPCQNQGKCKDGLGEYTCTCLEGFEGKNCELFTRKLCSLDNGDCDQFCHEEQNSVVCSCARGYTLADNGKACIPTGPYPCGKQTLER
Chain of human TK1 (P06870 25-262): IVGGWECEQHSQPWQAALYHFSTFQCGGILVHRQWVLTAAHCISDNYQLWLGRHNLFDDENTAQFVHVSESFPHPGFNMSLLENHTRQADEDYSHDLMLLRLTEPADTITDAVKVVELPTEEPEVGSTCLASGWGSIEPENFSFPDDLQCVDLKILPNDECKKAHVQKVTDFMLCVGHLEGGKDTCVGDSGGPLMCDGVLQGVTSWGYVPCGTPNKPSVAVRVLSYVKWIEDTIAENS
Chain of Human FVIIa (P08709 213-466): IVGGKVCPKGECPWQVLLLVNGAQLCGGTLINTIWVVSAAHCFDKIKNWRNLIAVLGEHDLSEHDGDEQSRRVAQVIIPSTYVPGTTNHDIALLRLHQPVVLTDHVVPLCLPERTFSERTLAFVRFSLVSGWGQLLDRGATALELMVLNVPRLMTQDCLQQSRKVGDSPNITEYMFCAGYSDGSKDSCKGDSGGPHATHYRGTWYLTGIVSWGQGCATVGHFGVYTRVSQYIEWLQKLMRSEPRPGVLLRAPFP
Chain of Human FVIIa (P08709 61-212 partner): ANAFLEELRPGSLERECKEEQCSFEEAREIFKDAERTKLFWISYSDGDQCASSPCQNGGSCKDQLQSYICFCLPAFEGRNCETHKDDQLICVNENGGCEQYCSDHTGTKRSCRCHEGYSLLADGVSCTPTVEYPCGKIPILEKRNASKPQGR
Chain of FVIIa/TF/PL/CaCl2 (P08709 213-466): as the sequence (P08709 213-466) above
Chain of FVIIa/TF/PL/CaCl2 (P08709 61-212 partner): as the sequence (P08709 61-212 partner) above
Chain of FVIIa/TF/PL/CaCl2 (P13726 33-295 partner): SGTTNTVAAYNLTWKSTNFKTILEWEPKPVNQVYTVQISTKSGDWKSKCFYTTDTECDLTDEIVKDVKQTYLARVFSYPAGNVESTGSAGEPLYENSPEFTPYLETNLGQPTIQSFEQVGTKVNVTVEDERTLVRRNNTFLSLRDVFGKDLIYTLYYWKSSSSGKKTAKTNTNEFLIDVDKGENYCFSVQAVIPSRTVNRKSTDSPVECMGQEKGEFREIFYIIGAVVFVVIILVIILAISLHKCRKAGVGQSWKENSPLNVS

Usually Km stands for the concentration of substrate that gives half-maximal velocity. Consider `Cc1cc(=O)oc2cc(NC(=O)[C@H](CCCNC(=N)N)NC(=O)[C@H](Cc3ccccc3)NC(=O)[C@@H]3CCCN3)ccc12` [Example I1295, H-Pro-Phe-Arg-AMC] (H-Pro-Phe-Arg-{AMC}), for which the Km on human TK1 turned out to be 70 µM. On to `NC(N)=NCCC[C@H](NC(=O)[C@@H]1CCCCN1C(=O)[C@H](N)Cc1ccccc1)C(=O)Nc1ccc([N+](=O)[O-])cc1` [Example S2238], for which the Michaelis constant (Km) on Human FIIa is 1250 µM. For `N=C(N)NCCC[C@H](NC(=O)[C@H](Cc1ccccc1)NC(=O)[C@H]1CCCN1)C(=O)Nc1ccc([N+](=O)[O-])cc1` [Example S2302] (H-[dP]-Phe-Arg-pNA), on Human FXIIa, the Km was 200 µM. With `NC(N)=NCCC[C@H](NC(=O)CNC(=O)[C@@H](CCCN=C(N)N)NC(=O)OCc1ccccc1)C(=O)Nc1ccc([N+](=O)[O-])cc1` [Example S2765] (Cbz-[dR]-Gly-Arg-pNA), the Km at Human FXa stood at 1310 µM. In the case of `CCC(NC(=O)C(CC1CCCCC1)NS(C)(=O)=O)C(=O)NC(CCCN=C(N)N)C(=O)Nc1ccc([N+](=O)[O-])cc1` (stereo not drawn) [Pefachrome ® FVIIa] (Ms-[Cha]-[Abu]-Arg-pNA; configuration not given here), the Km was determined as 3920 µM at FVIIa/TF/PL/CaCl2 and 420 µM on Human FVIIa.
